Experimental data reported in the NIST ThermoML archive (doi:10.1016/j.tca.2016.08.003).
± gives the expanded uncertainty stated by the source.

Legend:
[1] = Crystal; DTA
[2] = Molar enthalpy of transition or fusion; conditions: Crystal; DSC

Compound | Normal melting temperature [1] | Molar enthalpy of transition or fusion [2]
O=[N+]([O-])[O-].[K+] [potassium nitrate] | 333.80 ± 1.1 °C | 2.49 ± 0.0717 kcal/mol
O=[N+]([O-])[O-].[Rb+] [rubidium nitrate] | 309.50 ± 2 °C | 1.17 ± 0.0741 kcal/mol
O=[N+]([O-])[O-].[Na+] [sodium nitrate] | 305.90 ± 0.6 °C | 3.7 ± 0.0813 kcal/mol
